These results are taken from ChEMBL document CHEMBL2331241, “Synthesis of C-cinnamoyl glycosides and their inhibitory activity against mammalian carbonic anhydrases” (Bioorg Med Chem, 2013).

Experiment [1] has as its target Carbonic anhydrase 3 (Homo sapiens, UniProt P07451). In words: Inhibition of human carbonic anhydrase 3 preincubated for 15 mins by CO2 hydration stopped-flow assay.
The target of experiment [2] is Carbonic anhydrase 9 (Homo sapiens, UniProt Q16790). In words: Inhibition of human carbonic anhydrase 9 preincubated for 15 mins by CO2 hydration stopped-flow assay.
Experiment [3] has as its target Carbonic anhydrase 5B, mitochondrial (Homo sapiens, UniProt Q9Y2D0).
Description: Inhibition of human carbonic anhydrase 5B preincubated for 15 mins by CO2 hydration stopped-flow assay
In experiment [4] the target is Carbonic anhydrase 6 (Homo sapiens, UniProt P23280). Put plainly: Inhibition of human carbonic anhydrase 6 preincubated for 15 mins by CO2 hydration stopped-flow assay.
Carbonic anhydrase 6, sequence (P23280 whole entry): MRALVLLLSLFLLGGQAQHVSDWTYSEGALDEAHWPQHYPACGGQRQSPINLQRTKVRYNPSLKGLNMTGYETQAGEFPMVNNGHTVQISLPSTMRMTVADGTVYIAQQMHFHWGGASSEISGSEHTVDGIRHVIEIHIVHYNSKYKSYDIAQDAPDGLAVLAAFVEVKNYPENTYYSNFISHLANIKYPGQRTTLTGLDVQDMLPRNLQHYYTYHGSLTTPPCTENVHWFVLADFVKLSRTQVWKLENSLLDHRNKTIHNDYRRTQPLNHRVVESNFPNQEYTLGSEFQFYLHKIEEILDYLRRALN

Molecules are shown by their SMILES. A value given as a limit tells only on which side of the number the result lay.

Carbonic anhydrase 5B, mitochondrial, sequence (Q9Y2D0 whole entry): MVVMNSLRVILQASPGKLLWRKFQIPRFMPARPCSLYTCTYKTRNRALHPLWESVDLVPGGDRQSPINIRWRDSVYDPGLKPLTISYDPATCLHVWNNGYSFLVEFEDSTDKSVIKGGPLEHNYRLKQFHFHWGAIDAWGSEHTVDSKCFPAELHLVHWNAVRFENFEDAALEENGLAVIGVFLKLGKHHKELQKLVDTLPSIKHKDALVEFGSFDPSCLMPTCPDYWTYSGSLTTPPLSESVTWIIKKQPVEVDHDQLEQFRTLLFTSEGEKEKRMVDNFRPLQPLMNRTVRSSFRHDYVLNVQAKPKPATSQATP
Carbonic anhydrase 3, sequence (P07451 whole entry): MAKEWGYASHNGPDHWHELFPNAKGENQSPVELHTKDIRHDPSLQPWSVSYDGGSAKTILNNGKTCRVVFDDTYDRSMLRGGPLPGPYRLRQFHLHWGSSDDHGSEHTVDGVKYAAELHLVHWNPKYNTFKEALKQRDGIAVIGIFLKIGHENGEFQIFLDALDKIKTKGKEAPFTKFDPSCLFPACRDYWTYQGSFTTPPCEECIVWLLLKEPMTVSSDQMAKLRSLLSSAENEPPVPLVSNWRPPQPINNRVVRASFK

As for `CC(=O)OC[C@H]1O[C@@H](CC(=O)/C=C/c2cccc(O)c2)[C@H](OC(C)=O)[C@@H](OC(C)=O)[C@@H]1OC(C)=O`, the Ki in experiment [1] is more than 100 µM; in experiment [2], 5.2 µM.

Turning to `CC(=O)OC[C@H]1O[C@@H](CC(=O)/C=C/c2ccc(O)cc2)[C@H](OC(C)=O)[C@@H](OC(C)=O)[C@@H]1OC(C)=O`, the inhibition constant (Ki) is more than 100 µM in experiment [1] and 5.9 µM in experiment [2].

Turning to `CC(=O)OC[C@H]1O[C@@H](CC(=O)/C=C/c2cccc(O)c2)[C@H](OC(C)=O)[C@@H](OC(C)=O)[C@H]1OC(C)=O`, the Ki was more than 100 µM in experiment [1] and 3.3 µM in experiment [2].

Turning to `CC(=O)OC[C@H]1O[C@@H](CC(=O)/C=C/c2ccc(O)cc2)[C@H](OC(C)=O)[C@@H](OC(C)=O)[C@H]1OC(C)=O`, the Ki is more than 100 µM in experiment [1] and 2.9 µM in experiment [2].

Turning to `O=C(/C=C/c1cccc(O)c1)C[C@@H]1O[C@H](CO)[C@@H](O)[C@H](O)[C@H]1O`, the Ki is more than 100 µM in experiment [3], more than 100 µM in experiment [1] and 4.5 µM in experiment [2].

Consider `O=C(/C=C/c1cccc(O)c1)C[C@@H]1O[C@H](CO)[C@H](O)[C@H](O)[C@H]1O`, for which the Ki in experiment [3] is more than 100 µM; in experiment [1] it was more than 100 µM; in experiment [2], 9.2 µM.

Turning to `O=C(/C=C/c1ccc(O)cc1)C[C@@H]1O[C@H](CO)[C@H](O)[C@H](O)[C@H]1O`, the Ki in experiment [3] was more than 100 µM; in experiment [1] it was 8.4 µM; in experiment [2], 8.2 µM; in experiment [4], more than 100 µM.

Consider `O=C(/C=C/c1ccc(O)cc1)C[C@@H]1O[C@H](CO)[C@@H](O)[C@H](O)[C@H]1O`, for which the Ki is more than 100 µM in experiment [3], more than 100 µM in experiment [1], 8.2 µM in experiment [2] and more than 100 µM in experiment [4].

The Ki is the equilibrium dissociation constant of an inhibitor or competing ligand from its target.
